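Briefly, cells in 96-well plates were exposed to five compound concentrations for 48 h, and endpoints were estimated by linear interpolation. GI50 is the concentration that inhibits growth by half. TGI is the concentration that stops growth completely.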
Columns and labels:
Experiment in all cases: NCI tumour cell line growth inhibition, 48 h
EKVX NSCLC = tested on: EKVX NSCLC
UACC-62 melanoma = tested on: UACC-62 melanoma
SF-539 CNS = tested on: SF-539 CNS
NCI-H460 lung = tested on: NCI-H460 lung
M14 melanoma = tested on: M14 melanoma
IGROV1 ovarian = tested on: IGROV1 ovarian
MDA-MB-231 breast = tested on: MDA-MB-231 breast
MALME-3M melanoma = tested on: MALME-3M melanoma
SK-OV-3 ovarian = tested on: SK-OV-3 ovarian
ACHN renal = tested on: ACHN renal
CAKI-1 renal = tested on: CAKI-1 renal
HCC-2998 colon = tested on: HCC-2998 colon
TK-10 renal = tested on: TK-10 renal
HCT-15 colon = tested on: HCT-15 colon
NCI-H23 lung = tested on: NCI-H23 lung
NCI-H226 lung = tested on: NCI-H226 lung
SNB-19 CNS = tested on: SNB-19 CNS
HCT-116 colon = tested on: HCT-116 colon
HL-60(TB) leukemia = tested on: HL-60(TB) leukemia
HOP-92 NSCLC = tested on: HOP-92 NSCLC
PC-3 prostate = tested on: PC-3 prostate
OVCAR-8 ovarian = tested on: OVCAR-8 ovarian
MDA-MB-435 = tested on: MDA-MB-435
A549 NSCLC = tested on: A549 NSCLC
HT29 colon = tested on: HT29 colon
UACC-257 melanoma = tested on: UACC-257 melanoma
SF-268 CNS = tested on: SF-268 CNS
CCRF-CEM leukemia = tested on: CCRF-CEM leukemia
A498 renal = tested on: A498 renal
SF-295 CNS = tested on: SF-295 CNS
SK-MEL-5 melanoma = tested on: SK-MEL-5 melanoma
RPMI-8226 leukemia = tested on: RPMI-8226 leukemia
NCI/ADR-RES ovarian = tested on: NCI/ADR-RES ovarian
786-0 renal = tested on: 786-0 renal
UO-31 renal = tested on: UO-31 renal
SK-MEL-2 melanoma = tested on: SK-MEL-2 melanoma
COLO 205 colon = tested on: COLO 205 colon
HOP-62 NSCLC = tested on: HOP-62 NSCLC
U251 CNS = tested on: U251 CNS
RXF 393 renal = tested on: RXF 393 renal
SK-MEL-28 melanoma = tested on: SK-MEL-28 melanoma
OVCAR-3 ovarian = tested on: OVCAR-3 ovarian
OVCAR-4 ovarian = tested on: OVCAR-4 ovarian
SN12C renal = tested on: SN12C renal
BT-549 breast = tested on: BT-549 breast
KM12 colon = tested on: KM12 colon
MOLT-4 leukemia = tested on: MOLT-4 leukemia
SW-620 colon = tested on: SW-620 colon
LOX IMVI melanoma = tested on: LOX IMVI melanoma
HS 578T breast = tested on: HS 578T breast
OVCAR-5 ovarian = tested on: OVCAR-5 ovarian
SR leukemia = tested on: SR leukemia
MCF7 breast = tested on: MCF7 breast
NCI-H522 lung = tested on: NCI-H522 lung
DU-145 prostate = tested on: DU-145 prostate
K-562 leukemia = tested on: K-562 leukemia
SNB-75 CNS = tested on: SNB-75 CNS
T-47D breast = tested on: T-47D breast

## COC1=C(C)C(=O)N2[C@@H]1[C@H](c1ccccc1)OC21C=CC(=O)C=C1
EKVX NSCLC
  GI50: 10.7 µM
  TGI: > 33.8 µM
UACC-62 melanoma
  GI50: 1350 nM
  TGI: 5.51 µM
SF-539 CNS
  GI50: 4.73 µM
  TGI: 11.5 µM
NCI-H460 lung
  GI50: 8.13 µM
  TGI: 21.8 µM
M14 melanoma
  GI50: 4.39 µM
  TGI: 12.5 µM
IGROV1 ovarian
  GI50: 6.83 µM
  TGI: 21.7 µM
MDA-MB-231 breast
  GI50: 2770 nM
  TGI: 9.27 µM
MALME-3M melanoma
  GI50: 1080 nM
  TGI: 4.32 µM
SK-OV-3 ovarian
  GI50: > 41.9 µM
  TGI: > 100 µM
ACHN renal
  GI50: 658 nM
  TGI: 1360 nM
CAKI-1 renal
  GI50: 804 nM
  TGI: 2390 nM
HCC-2998 colon
  GI50: 5.86 µM
  TGI: 10.9 µM
TK-10 renal
  GI50: 1410 nM
  TGI: 6.29 µM
HCT-15 colon
  GI50: 697 nM
  TGI: 2210 nM
NCI-H23 lung
  GI50: 4.07 µM
  TGI: 18.5 µM
NCI-H226 lung
  GI50: 9.79 µM
  TGI: > 31.1 µM
SNB-19 CNS
  GI50: 42.8 µM
  TGI: > 100 µM
HCT-116 colon
  GI50: 984 nM
  TGI: 3.81 µM
HL-60(TB) leukemia
  GI50: 922 nM
  TGI: 4.57 µM
HOP-92 NSCLC
  GI50: 2480 nM
  TGI: 7.65 µM
PC-3 prostate
  GI50: 7.81 µM
  TGI: > 32 µM
OVCAR-8 ovarian
  GI50: 1100 nM
  TGI: > 36.5 µM
MDA-MB-435
  GI50: 1970 nM
  TGI: 7.32 µM
A549 NSCLC
  GI50: 10.8 µM
  TGI: 38.9 µM
HT29 colon
  GI50: 1280 nM
  TGI: 4.28 µM
UACC-257 melanoma
  GI50: 4.97 µM
  TGI: 15.5 µM
SF-268 CNS
  GI50: 8.89 µM
  TGI: 31.9 µM
CCRF-CEM leukemia
  GI50: 925 nM
  TGI: 3.87 µM
A498 renal
  GI50: 27.4 µM
  TGI: > 89.4 µM
SF-295 CNS
  GI50: 15.5 µM
  TGI: 46.9 µM
SK-MEL-5 melanoma
  GI50: 5.05 µM
  TGI: 9.94 µM
RPMI-8226 leukemia
  GI50: 1330 nM
  TGI: 8.44 µM
NCI/ADR-RES ovarian
  GI50: 3.36 µM
  TGI: > 47.4 µM
786-0 renal
  GI50: 2860 nM
  TGI: 8.22 µM
UO-31 renal
  GI50: 1310 nM
  TGI: 3.88 µM
SK-MEL-2 melanoma
  GI50: 6.92 µM
  TGI: 19.6 µM
COLO 205 colon
  GI50: 2560 nM
  TGI: 7.81 µM
HOP-62 NSCLC
  GI50: 10.8 µM
  TGI: 24.9 µM
U251 CNS
  GI50: 5.61 µM
  TGI: 11 µM
RXF 393 renal
  GI50: 1420 nM
  TGI: 6.26 µM
SK-MEL-28 melanoma
  GI50: 1200 nM
  TGI: 6.68 µM
OVCAR-3 ovarian
  GI50: 1090 nM
  TGI: 3.74 µM
OVCAR-4 ovarian
  GI50: 3.51 µM
  TGI: 16.6 µM
SN12C renal
  GI50: 3.64 µM
  TGI: 27.7 µM
BT-549 breast
  GI50: 2970 nM
  TGI: 9.47 µM
KM12 colon
  GI50: 5.99 µM
  TGI: 12.9 µM
MOLT-4 leukemia
  GI50: 2230 nM
  TGI: 11 µM
SW-620 colon
  GI50: 923 nM
  TGI: 2780 nM
LOX IMVI melanoma
  GI50: 757 nM
  TGI: 2690 nM
HS 578T breast
  GI50: 12.5 µM
  TGI: > 40.9 µM
OVCAR-5 ovarian
  GI50: 3.78 µM
  TGI: 11.6 µM
SR leukemia
  GI50: 673 nM
  TGI: 15.5 µM
MCF7 breast
  GI50: 1070 nM
  TGI: 5.39 µM
NCI-H522 lung
  GI50: 555 nM
  TGI: 1350 nM
DU-145 prostate
  GI50: 3.69 µM
  TGI: 19.1 µM
K-562 leukemia
  GI50: 1110 nM
  TGI: > 67 µM
SNB-75 CNS
  GI50: 12.1 µM
  TGI: 50 µM
T-47D breast
  GI50: 1730 nM
  TGI: 9.99 µM
